Tested on: Grapholyta molesta
Assay: Open field trial, foliar application on peach trees against Grapholyta molesta
Format: in vivo
Details: timing ABC; for Alive larvae per 100 fruit / Deep holes per 100 fruit: 12 days after final application; for % control on alive larvae / % control on deep holes: Abbott equation
From the text: Another open field trial is set up to evaluate the efficacy and selectivity of Compound A against Grapholyta molesta for peach trees (Amiga variety). The trial is designed as randomized complete block with four replications. Compound A is applied only twice (Timing A, and B), while all other treatments are applied three times (Timing A, B and C) where each application is about one week apart.
Treatments are sprayed using a mist spray multi plot equipment, designed for efficacy trials with four independent series of 8 nozzles (ALBUZ, ATR 80 Yellow) and calibrated to apply a spray volume of 1200 L/ha at a pressure of 450 Kpa. The applications target the egg lay stage of second generation at the crop growth stage of BBCH 73-75, 75-76 and 76-77 respectively for timing A, B and C. At twelve days after the final application, the efficacy assessment is carried out on 100 fruits/plot assessing the number of damaged fruits (distinct as superficial stings and deep holes) and the number of alive larvae.
Results are shown in Table 3, where data assessed are also transformed to a percentage of control using Abbott equation. Data are examined according to the Bartlett's test for homogeneity of variance. The treatment means of the assessment data are calculated and compared using Tukey's HSD test (p=0.05). In the untreated there are 18 alive larvae found in 100 fruits/plot, which represented a high infestation situation

[1] = 680 g ai/ha, first listed formulation (Table 3 order: (1) CS 200 g ai/L)
[2] = 680 g ai/ha, second listed formulation (Table 3 order: (2) EC 225 g ai/L)
[3] = 850 ai/ha, second listed formulation (Table 3 order: (2) EC 225 g ai/L)
[4] = 850 g ai/ha, first listed formulation (Table 3 order: (1) CS 200 g ai/L)
[5] = 1020 g ai/ha, first listed formulation (Table 3 order: (1) CS 200 g ai/L)
[6] = 1020 g ai/ha, second listed formulation (Table 3 order: (2) EC 225 g ai/L)

CCOP(=S)(OCC)Oc1nc(Cl)c(Cl)cc1Cl [Chlorpyriphos-Ethyl]
Alive larvae per 100 fruit (1080 g ai/ha, EC 480 g ai/L): 0.0 b per 100 fruit | Deep holes per 100 fruit (1080 g ai/ha, EC 480 g ai/L): 0 b per 100 fruit | % control on alive larvae (1080 g ai/ha, EC 480 g ai/L): 100.0 a % | % control on deep holes (1080 g ai/ha, EC 480 g ai/L): 100.0 a %

COP(=S)(OC)Oc1nc(Cl)c(Cl)cc1Cl [Chlorpyriphos-Methyl]
Alive larvae per 100 fruit [1]: 0.0 b per 100 fruit | Deep holes per 100 fruit [1]: 3 b per 100 fruit | Alive larvae per 100 fruit [2]: 0.0 b per 100 fruit | Deep holes per 100 fruit [2]: 3 b per 100 fruit | % control on alive larvae [1]: 100.0 a % | % control on deep holes [1]: 81.3 c % | % control on alive larvae [2]: 100.0 a % | % control on deep holes [2]: 85.8 bc % | Alive larvae per 100 fruit [3]: 0.0 b per 100 fruit | Deep holes per 100 fruit [3]: 2 b per 100 fruit | % control on alive larvae [3]: 100.0 a % | % control on deep holes [3]: 93.0 bc % | Alive larvae per 100 fruit [4]: 0.0 b per 100 fruit | Deep holes per 100 fruit [4]: 2 b per 100 fruit | % control on alive larvae [4]: 100.0 a % | % control on deep holes [4]: 93.4 abc % | Alive larvae per 100 fruit [5]: 0.0 b per 100 fruit | Deep holes per 100 fruit [5]: 0 b per 100 fruit | Alive larvae per 100 fruit [6]: 0.0 b per 100 fruit | Deep holes per 100 fruit [6]: 0 b per 100 fruit | % control on alive larvae [5]: 100.0 a % | % control on deep holes [5]: 100.0 a % | % control on alive larvae [6]: 100.0 a % | % control on deep holes [6]: 100.0 a %
